Results taken from PubChem BioAssay AID2305 (GlaxoSmithKline (GSK), 2010).
Several values for one entry are separate records, joined by “and”; a condition that tells them apart may be missing. Identical values can stand only once.

What follows are compounds tested on P. falciparum 3D7 growth, pLDH absorbance (assay: P. falciparum 3D7 growth inhibition, dose response, strain 3D7 (AID 2305)).

Row | SMILES | IC50
1 | OC(COc1ccccc1-c1nc2ccccc2o1)CN1CCCN(CCc2ccccc2)CC1 (centres undefined) | 760 nM
2 | CCOc1cc2ncnc(Nc3ccc(OCc4ccccc4OC)c(OC)c3)c2cc1OCC | 880 nM
3 | COc1ccc(CCCc2nc(N)nc(N)c2-c2ccc(Cl)cc2)cc1 | 40 nM
4 | O=C(NCCCCN1CCC(c2ccc3c(c2O)CCCC3)CC1)c1ccc(-c2ccc(Cl)cc2)cc1 | 750 nM
5 | O=C(C=Cc1ccc(Cl)c(Cl)c1)NCCCCCN1CCCC(CCCNC(=O)/C=C/c2ccccc2)C1 (centres undefined) | 590 nM
6 | COc1cccc2cc(C(=O)N[C@@H](CC(C)C)C(=O)N[C@H](/C=N/NC(=O)N3CCN(C)CC3)CCc3ccccc3)oc12 | 620 nM
7 | Oc1ccc(CCCNc2nc(NCc3ccccc3-c3ccccc3)nc(NC3CCNCC3)n2)cc1 | 860 nM
8 | Cn1nc(C(F)(F)F)c(-c2ccc(Br)cc2)c1NC(=O)Nc1ccc(F)cc1F | 790 nM
9 | O=C(Nc1ccc(CN2CCN(S(=O)(=O)c3ccc(Cl)s3)CC2)cc1)c1cccs1 | 890 nM
10 | Cc1[nH]c(C)c(-c2ccc(OCc3ccc(F)cc3)cc2)c(=O)c1Cl | 570 nM
11 | O=C(Nc1ccc(F)cc1F)NC1CCN(CCCCCNC(=O)[C@@H]2C[C@H]2c2ccc(Cl)c(Cl)c2)CC1 | 500 nM
12 | CCOc1cc(Cc2cnc(N)nc2N)cc(OCC)c1OCCCCC(=O)OC | 40 nM
13 | CS(=O)(=O)c1ccc(CCNCc2ccc(-c3ccc(CN(C(=O)c4ccc(Cl)nc4)C4CCN(Cc5ccccc5)CC4)cc3)nc2)cc1 | 800 nM
14 | CC(C)CCN1CCC(Oc2ccc(NC(=O)c3cccs3)cc2Cl)C1 (centres undefined) | 1100 nM
15 | CC1CN(Cc2ccccc2)CCN1c1ccc(NC(=O)c2ccc(F)cc2)cc1 (centres undefined) | 1010 nM
16 | O=C(Nc1ccc2c(c1)CCC2)c1ccc(N2CCN(c3ccncc3)CC2)cc1 | 1130 nM
17 | CC(C)CNC(=O)CN1C(=O)C(c2ccccc2)(c2ccccc2)N=C1N | 820 nM
18 | O=C(NC1CCN(Cc2ccccc2)CC1)c1cc(-c2ccncc2)nc2ccc(Cl)cc12 | 920 nM
19 | O=c1cc(NCCCNCc2cc(Cl)c(Cl)cc2Cl)[nH]c2ccccc12 | 970 nM
20 | Cc1cc(Nc2nc(Nc3cccc(Cl)c3)nc3ccccc23)n[nH]1 | 290 nM
21 | COc1ccc(C2CCN(CCCCNC(=O)c3ccc(NC(=O)c4ccc(Cl)cc4)cc3)CC2)c(C)c1 | 750 nM
22 | COc1c(CN2CCOCC2)cccc1-c1cc2c(-c3ccc(C(=O)O)c(C(C)C)c3)ccnc2[nH]1 | 740 nM
23 | CC(C)OC(=O)c1cccnc1SCC(=O)Nc1ccc(C(F)(F)F)cc1Cl | 400 nM
24 | Fc1cccc(Nc2nc(NCc3ccc(OCc4ccccc4)cc3)nc(Nc3cccc(F)c3)n2)c1 | 1180 nM
25 | OC1(c2ccccc2)c2cc(Cl)ccc2OC1c1nc2c(Cl)ccc(Cl)c2o1 (centres undefined) | 300 nM

Row | SMILES | IC50
26 | Cc1c(-c2ccc(C(=O)NC3CC(C)(C)NC(C)(C)C3)cc2)[nH]c2cc(Cl)c(Cl)cc12 | 750 nM
27 | COc1ccc(S(=O)(=O)Nc2ccc(C(=O)NCc3ccc(C(F)(F)F)cc3)cc2)cc1N1CCN(CC2CC2)CC1 | 1120 nM
28 | Cn1c(Nc2cc(C(C)(C)C)on2)nc2cc(Nc3ccnc(Nc4cccc(S(=O)(=O)N5CCOCC5)c4)n3)ccc21 | 530 nM
29 | O=C(CSc1nc2ccccc2c(=O)n1C1CC1)Nc1cc(C(F)(F)F)ccc1Cl | 110 nM
30 | Cc1cn(CC(=O)Nc2cccc(-c3cccc(-c4nc5c(C)cccc5[nH]4)c3)c2)c(=O)[nH]c1=O | 580 nM
31 | CC(=O)Nc1sc(C)c(C)c1CN1CCc2ccccc2C1 | 620 nM
32 | CC(C)CN1CCN(c2nc(C#N)c3c(c2C(=S)NC2CCCCC2)CC(C)(C)OC3)CC1 | 300 nM
33 | CN1CC[C@H](N(Cc2ccccc2F)c2ccc(C#N)c(Cl)c2)C1 | 1270 nM
34 | CCCN(Cc1ccc(OCC)cc1)Cc1cc(=O)c2cc(Cl)ccc2[nH]1 | 1260 nM
35 | COc1cc2nc(N(C)Cc3cc4c(Cl)cccc4s3)nc(N)c2cc1OC | 950 nM
36 | Cc1ccc(NCC(=O)Nc2ccc(F)c(Cl)c2)cc1S(=O)(=O)N1CCOCC1 | 60 nM
37 | COc1ccc(CNCc2cccc(-c3cccc(-c4nc5ccccc5[nH]4)c3)c2)cc1 | 370 nM
38 | CN1CCN(CCCN(Cc2ccc(-c3cccc(CNCc4ccc5c(c4)OCO5)c3)cc2)C(=O)Nc2ccccc2)CC1 | 180 nM
39 | FC(F)(F)c1cccc(CCNc2nccc(NCc3ccc(Cl)cc3Cl)n2)c1 | 860 nM
40 | CC(C)(C)C1CC(=O)C[C@@H]2C(=O)N(C3CCCCC3)C(=O)[C@H]12 (some centres undefined) | 420 nM
41 | COc1cccc(-n2ncc3c(N/N=C/c4ccc(CN(C)CCN(C)C)cc4)ncnc32)c1 | 890 nM
42 | O=C(Nc1ccccc1Cl)NC1CCC(CN2CCC(c3c[nH]c4ccccc34)CC2)CC1 (centres undefined) | 800 nM and 750 nM
43 | COc1ccc2c(OC)cccc2c1CNCCCCCCNCc1c(OC)ccc2c(OC)cccc12 | 690 nM
44 | CC(O)C1CCCCN1C(=O)c1cccc(-c2ccc(-c3nc4ccccc4[nH]3)s2)c1 (centres undefined) | 800 nM
45 | O=C(NN=Cc1nc2ccccc2[nH]1)c1cccc([N+](=O)[O-])c1 | 630 nM
46 | CC(C)C[C@@H](/C=N/N1CCOC1=O)NC(=O)[C@H](CC(C)C)NC(=O)c1ccc(OCCN2CCOCC2)cc1 | 220 nM
47 | COc1cc(NC(=O)/C=C/c2ccc(-c3ccccc3)cc2)ccc1OCCN(C(C)C)C(C)C | 840 nM
48 | O=C(Nc1ccc(Oc2ccc(OC(F)(F)F)cc2)cc1)c1ccco1 | 1130 nM
49 | COc1ccc(C(=O)Nc2ccc(Cl)cc2C(=O)Nc2ccncc2)cc1 | 820 nM
50 | O=c1cc(NCCCNCc2ccc(C(F)(F)F)c(F)c2)[nH]c2ccccc12 | 1190 nM

Row | SMILES | IC50
51 | N#Cc1ccc2nc(-c3cc(-c4cccc(F)c4)cnc3N)[nH]c2c1 | 190 nM
52 | CCOc1c(CNCCCNc2cc(=O)c3ccccc3[nH]2)cc(I)cc1OC | 1170 nM
53 | O=C(Nc1ccc(Br)cc1)Nc1ccc(Cn2ncc(N3CCCNCC3)c(Cl)c2=O)cc1 | 1140 nM
54 | CN1CCC(NC(=O)c2cc(Oc3ccc4c(c3)CCN4C(=O)Nc3cccc(C(F)(F)F)c3)ccn2)CC1 | 930 nM
55 | COc1cccc(CC(=O)N2CCC(n3c(C)nc4ccc(F)cc43)CC2)c1 | 910 nM
56 | COc1cc(OCCCN(C)Cc2ccc(OC)c(OC)c2)ccc1NC(=O)c1cccc2c(=O)c3cccc(F)c3[nH]c12 | 890 nM
57 | COc1ccc2nccc(NCC3(O)CCN(CCc4ccc5c(c4)OCCO5)CC3)c2n1 | 600 nM
58 | Cc1[nH]c(C)c(-c2ccc(Oc3ccccc3)cc2)c(=O)c1Br | 50 nM
59 | COc1ccc(CCNCc2ccc3nc(N)c(C)cc3c2)cc1 | 990 nM
60 | COc1ccc(C2C(C(=O)Nc3ccc(C)c(F)c3)c3cc(OC)c(OC)cc3C(=O)N2C)cc1 (centres undefined) | 960 nM
61 | COc1cc(NC(=O)c2ccc(-c3ccc(C(C)=O)cc3)s2)ccc1OCCN1CCCC1 | 150 nM
62 | C=CCn1c(SCc2c(C)noc2C)nc2scc(-c3cccs3)c2c1=O | 1100 nM
63 | Cc1cccc2[nH]c(-c3cccc(-c4ccc(NC(=O)Nc5cccc(C#N)c5)cc4)c3)nc12 | 190 nM
64 | CCNc1cc(C(=O)N[C@@H](Cc2ccccc2)[C@H](O)CNC23CCC(CC2)C3)cc(N2CCCCS2(=O)=O)c1 | 30 nM
65 | COc1ccc(-c2cccc(NC(=O)c3ccc(Cl)cc3)c2)cc1CN1CCNCC1 | 840 nM
66 | C=CC[C@@H](C(=O)OCC)[C@@H]1[C@@H](N(CC=C)C(=O)OC(C)(C)C)CCN1C(=O)OCc1ccccc1 | 960 nM
67 | CC(C)(C)c1ccc(CNC(=O)c2cc(CNC3CCNCC3)ccc2O)cc1 | 710 nM
68 | Cc1ccccc1-c1nc2c(CN3CCC(O)(c4ccccc4)CC3)c(O)ccc2[nH]1 | 870 nM
69 | Cc1ccccc1CCNC(=O)c1cnc(N2CCN(c3ccncc3)CC2)c(Cl)c1 | 1060 nM
70 | NCc1cccc(-c2ccc(CNC3CCN(Cc4ccccc4)CC3)cc2)c1 | 1700 nM
71 | O=c1cc(NCCCN(Cc2ccccc2)Cc2ccccc2)[nH]c2ccccc12 | 580 nM
72 | CCn1ccc2c(N3CCCCS3(=O)=O)cc(C(=O)N[C@@H](Cc3ccccc3)[C@H](O)CNC3CCCCC3)cc21 | 120 nM
73 | COCCNC(=O)C(CNC(=O)c1ccc2c(c1)OCO2)NC(=O)c1ccc(-c2ccccc2)cc1 (centres undefined) | 970 nM
74 | CN(C)Cc1ccc2nc(-c3cccc(Cc4cc(Cl)ccc4OCc4ccc(Cl)cc4F)n3)[nH]c2c1 | 1130 nM
75 | O=C(/C=C/c1ccc(Cl)c(Cl)c1)N(Cc1ccccc1)C1CCC(CN2CCC(c3c[nH]c4ccccc34)CC2)CC1 (centres undefined) | 210 nM

Row | SMILES | IC50
76 | COc1ccc(OC)c(Cc2cnc3nc(N)nc(N)c3c2C)c1 | 10 nM
77 | CC(C)CCN1CCC(Oc2ccc(NC(=O)c3ccsc3)cc2Cl)CC1 | 1040 nM
78 | COc1ccccc1N1CCN(CCCCNC(=O)c2ccc(NC(=O)c3ccc4ccccc4c3)cc2)CC1 | 800 nM
79 | Cc1cc(NC(=O)c2cccs2)ccc1OC1CCN(Cc2ccc(F)cc2)CC1 | 480 nM
80 | O=C(Cc1cnc[nH]1)Nc1cccc(-c2ccc(-c3nc4ccc(C(F)(F)F)cc4[nH]3)s2)c1 | 770 nM
81 | N#CCCn1nc(-c2ccc(Cl)cc2)c2c(c1=O)CCCC2 | 890 nM
82 | Cc1ccc(C(=O)Nc2cc(S(=O)(=O)N3CCCC3)ccc2OCC(F)(F)F)cc1 | 850 nM
83 | Cc1ccc(CNC(=O)[C@H](CCCN)Nc2cc(C)nc(NCC3CCCCC3)n2)cc1 | 1220 nM
84 | CCN(CC)c1ccc(-c2nc3ncc(Cl)cc3[nH]2)cc1 | 1130 nM
85 | CCOC(=O)C1=C(C)N=c2sc(=Cc3cc(Cl)ccc3O)c(=O)n2C1c1ccc(OC)cc1 (centres undefined) | 750 nM
86 | Cc1nc(N)nc(N)c1OCCCCCCOc1ccccc1 | 240 nM
87 | O=C(Nc1ccccc1)c1cnc[nH]1 | 990 nM
88 | C=CCc1cccc(CN2CCC(c3cc(=O)[nH]c(-c4ccccn4)n3)CC2)c1O | 1100 nM
89 | Nc1nccc2ccc(-c3ccc(OCc4ccccc4)cc3)cc12 | 220 nM
90 | COc1cccc(C(=O)N2CCOC(CCN3CCC(c4ccccc4)CC3)(c3ccc(Cl)c(Cl)c3)C2)c1 (centres undefined) | 510 nM
91 | O=C(Nc1cccc(CN2CCCN(Cc3cccc(O)c3)CC2)c1)c1ccc2ccccc2c1 | 790 nM
92 | COc1cc(Cc2cnc(N)nc2N)cc(OC)c1OCCNC(=O)[C@@H](N)CCC(=O)O | 840 nM
93 | COc1cc2c(cc1OC)C(C(=O)Nc1cc(OC)c(OC)c(OC)c1)C(c1ccc(SC)cc1)N(C)C2=O (centres undefined) | 990 nM
94 | c1ccc2c(NCCCCCCNc3ccnc4ccccc34)ccnc2c1 | 190 nM
95 | COc1cccc(-c2cnc(N)c(-c3nc4ccc(F)cc4[nH]3)c2)c1 | 850 nM
96 | COc1cc(C(=O)NC2CC(C)(C)N(C)C(C)(C)C2)ccc1-c1cc2cc(Cl)c(Cl)cc2[nH]1 | 1140 nM
97 | N=C(N)c1ccc(Oc2ccc(C(=N)N)cc2)cc1 | 320 nM
98 | Cc1[nH]c(C)c(-c2ccc(Oc3ccc(Cl)cc3)cc2)c(=O)c1C | 390 nM
99 | CCCC(C(=O)OCCNC)(c1ccccc1)c1ccccc1 | 890 nM
